Experimental data taken from US20100285443A1, “Diagnostic Methods for Diseases Caused by a HPV Infection Comprising Determining the Methylation Status of the HPV Genome” (OncoMethylome Sciences SA, priority 2006, published 2010).

Legend:
HPV16 genome = test: DNA methylation of the HPV16 genome (bisulfite genomic sequencing); assay type: cell-based
From the text: To determine the methylation pattern of all […] genes, Bisulfite Genomic Sequencing and Methylation-specific PCR (MSP) were used. Essentially, both detection methods use the C to T conversion by bisulfite when the cytosine is not methylated. The Primers used are described in Table 1 (Bisulfite genomic sequencing—SEQ ID NOs 1 to 42) and Table 2 (Methylation-specific PCR—SEQ ID NOs 43 to 46).
Thus, the viral genome is methylated by the host human cellular DNMTs. Because the integration of HPV16 in the human genome occurs in most cervical tumors and a significant proportion of premalignant lesions, we can consider that human DNMTs might recognize these sequences as “foreign” DNA that needs to be methylated. Indeed in our study, we have confirmed by FISH analyses that the HPV16 genome is integrated in the host cell DNA in CaSki and SiHa.
The described HPV16 DNA methylomes also reflect the proposed expression patterns of the virus in cervical tumorigenesis, characterized by a significant overexpression of E6 and E7 in the carcinomas. […] This event is particularly observed for the E1/E2 region. The protein E2 is an inhibitor of cell proliferation by regulating the viral URR, repressing the E6 and E7 oncoproteins and ultimately causing cell cycle arrest at G2 (Frattini 1997 EMBO J). Thus, the genomic loss of E2 could contribute to the progression of the disease. […]

[1] = tested on: E2-binding sites at the URR region; test: Chromatin immunoprecipitation (ChIP) of E2 viral protein at the E2-binding sites of the URR; assay type: cell-based; conditions: after induced hypomethylation of the E2-binding sites
From the text: (§1) The described HPV16 DNA methylomes also reflect the proposed expression patterns of the virus in cervical tumorigenesis, characterized by a significant overexpression of E6 and E7 in the carcinomas. […] This event is particularly observed for the E1/E2 region. The protein E2 is an inhibitor of cell proliferation by regulating the viral URR, repressing the E6 and E7 oncoproteins and ultimately causing cell cycle arrest at G2 (Frattini 1997 EMBO J). Thus, the genomic loss of E2 could contribute to the progression of the disease. […] We observe instead methylation of the E2-binding sites at the URR region that are associated with high level of expression of the oncoproteins E6 and E7. Most important, we show by chromatin immunoprecipitation (ChIP) that the E2 viral protein cannot bind to the methylated E2-binding sites at the URR region, and thus leads to E6 and E7 overexpression.

E6 and E7 = test: Expression of HPV-16 E6 and E7 oncoproteins (Western blotting); assay type: cell-based, HPV16; conditions: after induced hypomethylation of the E2-binding sites
From the text: The detection of the expression of viral oncogenic proteins was realized by Western blotting technique using commercially available antibodies, raised against E6 and E7.
as §1

Nc1ncn([C@H]2C[C@H](O)[C@@H](CO)O2)c(=O)n1 [5-aza-2′-deoxycytidine]
methylation of the E2-binding sites at the URR region (HPV16 genome): hypomethylation events
recruitment of E2 to its URR binding sites [1]: recruitment of E2 to its URR binding sites
E6 and E7 expression (E6 and E7): marked reduction
